From patent EP0745595A1, “3-(3-Aryloxyphenyl)-1-(substituted methyl)-s-triazine-2,4,6-oxo or thiotrione herbicidal agents” (American Cyanamid Company, priority 1995, dated 1996)

Columns and labels:
Assay type in all cases: in vivo
[1] = tested on: ORYZA SATIVA, L. TEBONNET; test: Postemergence herbicidal evaluation, ORYSAT (Rice, Tebonnet); design: key: 0-9 visual rating scale vs untreated control
Summary of the method: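 Rice (Tebonnet) seedlings raised in jiffy flats for roughly two weeks were sprayed postemergence at 40 psi with compound dispersed in 50/50 acetone/water containing 0.5% TWEEN®20. The plants were then kept on greenhouse benches under standard care and visually scored on a 0-9 scale against a control four to five weeks after treatment.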

[2] = tested on: GLYCINE MAX(L) MERR. CV. WILLIAMS; test: Postemergence herbicidal evaluation, GLXMAW (Soybean, Williams); design: key to GLXMAW rating / Herbicidal effect rating, GLXMAW / GLXMAW: 0-9 visual rating scale vs untreated control
Summary of the method: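 Soybean seedlings (Williams) were raised in jiffy flats for roughly two weeks, then sprayed postemergence through a nozzle at 40 psi with test compound dispersed in 50/50 acetone/water containing 0.5% TWEEN®20. Treated plants were kept on greenhouse benches under normal care and visually rated on a 0-9 scale four to five weeks later.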

GALIUM APARINE = test: Preemergence herbicidal evaluation, GALAP (Galium); settings: for GALAP rating: four to five weeks after treatment; for GALAP herbicidal rating: rated four to five weeks after treatment
Summary of the method: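 Seeds sown in potting soil cups, then sprayed preemergence with aqueous acetone compound solution at about 0.125 to 0.50 kg per hectare. Greenhouse-grown, rated 4–5 weeks after treatment on a 0–9 visual scale against control.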

CASSIA OBTUSIFOLIA, L. = test: Postemergence herbicidal evaluation, CASOB (Sicklepod); design: key to CASOB rating / Herbicidal effect rating, CASOB / CASOB: 0-9 visual rating scale vs untreated control; settings: for CASOB, herbicide rating (0-9): rated four to five weeks after treatment, averaged
Summary of the method: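 Seedlings about two weeks old were sprayed with compound in 50/50 acetone/water containing 0.5% Tween 20 at about 0.125-0.500 kg/ha and kept in the greenhouse. Visual injury was rated on a 0-9 scale versus control 4-5 weeks after treatment; repeat tests were averaged.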

[3] = tested on: ECHINOCHLOA ORYZOIDES (ARD.)FRITSCH; test: Preemergence weed control under flooded paddy conditions, ECHORC (Watergrass (Calif.)); settings: for Herbicidal effect rating, ECHORC: preemergence, 3-4 weeks after treatment; for ECHORC: pre-weed
Summary of the method: (§1)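 Seeds or propagules were planted 0.5 cm deep in silt loam, with flood water held at 1.5 to 3 cm. Compound in 50/50 aqueous/acetone was pipetted into the flood water at about 0.5, 0.25, 0.125 and 0.063 kg/ha. Injury was rated visually on a 0-9 scale against a control 3-4 weeks after treatment.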

[…], PRESL. = Preemergence weed control under flooded paddy conditions, MOOVA (Monochoria); settings: for Herbicidal effect rating, MOOVA: preemergence, 3-4 weeks after treatment; for MOOVA: pre-weed
Summary of the method: as §1

What does the source list for `COC(=O)Cn1c(=O)n(C)c(=O)n(-c2cc(Oc3c(F)cc(C(F)(F)F)cc3Cl)ccc2F)c1=O` [Compound 4, Methyl 3-{5-[(2-chloro-α,α,α,6-tetrafluoro-p-tolyl)oxy]-2-fluorophenyl}tetrahydro-5-methyl-2,4,6-trioxo-s-triazine-1(2H)-acetate]?
Herbicidal effect rating, ORYSAT ([1]; 0.031 kg/ha): 4.6; Herbicidal effect rating, ORYSAT ([1]; 0.063 kg/ha): 5.0; Herbicidal effect rating, ORYSAT ([1]; 0.125 kg/ha): 5.7; Herbicidal effect rating, ORYSAT ([1]; 0.250 kg/ha): 6.4; Herbicidal effect rating, GLXMAW ([2]; 0.031 kg/ha): 5.1; Herbicidal effect rating, GLXMAW ([2]; 0.063 kg/ha): 5.7; Herbicidal effect rating, GLXMAW ([2]; 0.125 kg/ha): 6.4; Herbicidal effect rating, GLXMAW ([2]; 0.250 kg/ha): 7.3; GALAP rating (GALIUM APARINE; Rate 0.125 kg/ha): 7.3; GALAP rating (GALIUM APARINE; Rate 0.250 kg/ha): 9.0; GALAP rating (GALIUM APARINE; Rate 0.500 kg/ha): 9.0; Herbicidal effect rating, CASOB (CASSIA OBTUSIFOLIA, L.; 0.031 kg/ha): 8.6; Herbicidal effect rating, CASOB (CASSIA OBTUSIFOLIA, L.; 0.063 kg/ha): 8.4; Herbicidal effect rating, CASOB (CASSIA OBTUSIFOLIA, L.; 0.125 kg/ha): 9.0; Herbicidal effect rating, CASOB (CASSIA OBTUSIFOLIA, L.; 0.250 kg/ha): 8.4

How did the ORYSAT ([1]; Rate 0.008 kg/ha) turn out when `COC(=O)Cn1c(=O)n(C)c(=O)n(-c2cc(Oc3c(F)cc(C(F)(F)F)cc3Cl)ccc2[N+](=O)[O-])c1=O` [Compound 16, Methyl 3-{5-[(2-chloro-α,α,α,6-tetrafluoro-p-tolyl)oxy]-2-nitrophenyl}tetrahydro-5-methyl-2,4,6-trioxo-s-triazine-1(2H)-acetate] was run?
Its ORYSAT is 4.0.

What about the ORYSAT ([1]; Rate 0.016 kg/ha) of the same molecule?
The ORYSAT was 6.0.

What about the ORYSAT ([1]; Rate 0.031 kg/ha) of the same molecule?
Its ORYSAT is 5.3.

And the ORYSAT ([1]; Rate 0.063 kg/ha)?
The ORYSAT was 5.3.

What about the ORYSAT ([1]; Rate 0.125 kg/ha) of the same molecule?
The ORYSAT was 5.8.

What about the “Herbicidal effect rating, ECHORC” value ([3]; 0.063 kg/ha) of the same molecule?
The value was 9.0.

What about the “Herbicidal effect rating, ECHORC” value ([3]; 0.125 kg/ha) of the same molecule?
The value was 9.0.

What about the “Herbicidal effect rating, ECHORC” value ([3]; 0.250 kg/ha) of the same molecule?
Its value is 9.0.

What about the “Herbicidal effect rating, ECHORC” value ([3]; 0.500 kg/ha) of the same molecule?
The value was 9.0.

And the ECHORC ([3]; Rate 0.031 kg/ha)?
Its ECHORC is 9.0.

What about the ECHORC ([3]; Rate 0.063 kg/ha) of the same molecule?
Its ECHORC is 9.0.

And the ECHORC ([3]; Rate 0.125 kg/ha)?
The ECHORC was 9.0.

And the ECHORC ([3]; Rate 0.250 kg/ha)?
Its ECHORC is 9.0.

What about the “Herbicidal effect rating, MOOVA” value ([…], PRESL.; 0.063 kg/ha) of the same molecule?
Its value is 9.0.

What about the “Herbicidal effect rating, MOOVA” value ([…], PRESL.; 0.125 kg/ha) of the same molecule?
The value was 9.0.

What about the “Herbicidal effect rating, MOOVA” value ([…], PRESL.; 0.250 kg/ha) of the same molecule?
The value was 9.0.

And the “Herbicidal effect rating, MOOVA” value ([…], PRESL.; 0.500 kg/ha)?
Its value is 9.0.

And the MOOVA ([…], PRESL.; Rate 0.031 kg/ha)?
The MOOVA was 9.0.

What about the MOOVA ([…], PRESL.; Rate 0.063 kg/ha) of the same molecule?
The MOOVA was 9.0.

And the MOOVA ([…], PRESL.; Rate 0.125 kg/ha)?
The MOOVA was 9.0.

And the MOOVA ([…], PRESL.; Rate 0.250 kg/ha)?
Its MOOVA is 9.0.

What about the GLXMAW ([2]; Rate 0.008 kg/ha) of the same molecule?
The GLXMAW was 3.3.

What about the GLXMAW ([2]; Rate 0.016 kg/ha) of the same molecule?
Its GLXMAW is 3.8.

What about the GLXMAW ([2]; Rate 0.031 kg/ha) of the same molecule?
Its GLXMAW is 4.6.

And the GLXMAW ([2]; Rate 0.063 kg/ha)?
The GLXMAW was 5.1.

What about the GLXMAW ([2]; Rate 0.125 kg/ha) of the same molecule?
Its GLXMAW is 5.6.

And the GALAP (GALIUM APARINE; Rate 0.031 kg/ha)?
The GALAP was 9.0.

What about the GALAP (GALIUM APARINE; Rate 0.063 kg/ha) of the same molecule?
Its GALAP is 9.0.

What about the GALAP (GALIUM APARINE; Rate 0.125 kg/ha) of the same molecule?
Its GALAP is 9.0.

And the GALAP herbicidal rating (GALIUM APARINE; Rate 0.125 kg/ha)?
The GALAP herbicidal rating was 9.0.

What about the GALAP (GALIUM APARINE; Rate 0.250 kg/ha) of the same molecule?
The GALAP was 9.0.

And the GALAP herbicidal rating (GALIUM APARINE; Rate 0.250 kg/ha)?
Its GALAP herbicidal rating is 9.0.

And the GALAP herbicidal rating (GALIUM APARINE; Rate 0.500 kg/ha)?
Its GALAP herbicidal rating is 9.0.

And the CASOB (CASSIA OBTUSIFOLIA, L.; Rate 0.008 kg/ha)?
Its CASOB is 5.5.

What about the CASOB (CASSIA OBTUSIFOLIA, L.; Rate 0.016 kg/ha) of the same molecule?
Its CASOB is 8.7.

What about the CASOB (CASSIA OBTUSIFOLIA, L.; Rate 0.031 kg/ha) of the same molecule?
Its CASOB is 9.0.

What about the CASOB (CASSIA OBTUSIFOLIA, L.; Rate 0.063 kg/ha) of the same molecule?
Its CASOB is 8.3.

And the CASOB (CASSIA OBTUSIFOLIA, L.; Rate 0.125 kg/ha)?
The CASOB was 9.0.

What about the “CASOB, herbicide rating (0-9)” value (CASSIA OBTUSIFOLIA, L.; Rate 0.125 kg/ha) of the same molecule?
Its value is 9.0.

What about the “CASOB, herbicide rating (0-9)” value (CASSIA OBTUSIFOLIA, L.; Rate 0.250 kg/ha) of the same molecule?
The value was 9.0.

What about the “CASOB, herbicide rating (0-9)” value (CASSIA OBTUSIFOLIA, L.; Rate 0.500 kg/ha) of the same molecule?
The value was 9.0.
